This experiment has as its target Intestinal-type alkaline phosphatase (Homo sapiens) (UniProt P09923). Kind of experiment: human IAP enzyme inhibitors, SAR follow-up, biochemical, luminescence, set 2 (AID 540265). The following applies: purified human IAP, luminescent substrate read-out.

Activity calls are given as the source filed them. How the calls were made is not given here. Where only a bound is given, the exact number is not on record here.

The text below walks through data of PubChem BioAssay AID540265 (Sanford-Burnham Center for Chemical Genomics, 2011).

Usually IC50 stands for the point on the concentration scale where inhibition reaches its midpoint.

Chain of Intestinal-type alkaline phosphatase (Homo sapiens) (P09923 whole entry, looked up): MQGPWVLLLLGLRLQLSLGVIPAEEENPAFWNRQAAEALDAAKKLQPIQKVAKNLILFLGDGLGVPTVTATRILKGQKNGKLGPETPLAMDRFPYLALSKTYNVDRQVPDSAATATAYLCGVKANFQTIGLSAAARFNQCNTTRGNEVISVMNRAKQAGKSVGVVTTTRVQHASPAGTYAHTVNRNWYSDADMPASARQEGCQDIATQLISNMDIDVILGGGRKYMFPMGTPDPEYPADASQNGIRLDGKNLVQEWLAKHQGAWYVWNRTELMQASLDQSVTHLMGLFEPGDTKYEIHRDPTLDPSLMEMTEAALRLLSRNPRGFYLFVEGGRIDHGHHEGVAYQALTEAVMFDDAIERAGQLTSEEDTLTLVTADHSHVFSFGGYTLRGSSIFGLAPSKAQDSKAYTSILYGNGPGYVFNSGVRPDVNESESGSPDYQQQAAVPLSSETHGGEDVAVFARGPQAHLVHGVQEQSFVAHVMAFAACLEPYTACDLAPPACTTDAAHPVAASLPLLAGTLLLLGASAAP

On to `N#Cc1ccc(CNC(=O)CCNS(=O)(=O)c2ccc3[nH]c(=O)oc3c2)cc1`, for which the IC50 was > 100 µM (inactive).

As to `O=C(CNS(=O)(=O)c1ccc2[nH]c(=O)oc2c1)Nc1ccc2c(c1)OCO2`, the IC50 is > 100 µM (inactive).

Consider `Cc1ccc(C)c(NC(=O)CCNS(=O)(=O)c2ccc3[nH]c(=O)oc3c2)c1`, for which the IC50 is > 100 µM (inactive).

In the case of `O=C(CNS(=O)(=O)c1ccc2[nH]c(=O)oc2c1)NCc1ccc2c(c1)OCO2`, the IC50 is > 100 µM (inactive).

As to `COc1ccc(NC(=O)CNS(=O)(=O)c2ccc3[nH]c(=O)oc3c2)cc1OC`, the IC50 is > 100 µM (inactive).
